{"source": "patent US11661440B2", "about": "(priority 2015, dated 2023)", "key": {"[1]": {"target": "NR1a/NR2B (GluN1-a/GluN2B) recombinant NMDA receptor (Rattus norvegicus, UniProt Q00960)", "sequence (Q00960 whole entry, looked up)": "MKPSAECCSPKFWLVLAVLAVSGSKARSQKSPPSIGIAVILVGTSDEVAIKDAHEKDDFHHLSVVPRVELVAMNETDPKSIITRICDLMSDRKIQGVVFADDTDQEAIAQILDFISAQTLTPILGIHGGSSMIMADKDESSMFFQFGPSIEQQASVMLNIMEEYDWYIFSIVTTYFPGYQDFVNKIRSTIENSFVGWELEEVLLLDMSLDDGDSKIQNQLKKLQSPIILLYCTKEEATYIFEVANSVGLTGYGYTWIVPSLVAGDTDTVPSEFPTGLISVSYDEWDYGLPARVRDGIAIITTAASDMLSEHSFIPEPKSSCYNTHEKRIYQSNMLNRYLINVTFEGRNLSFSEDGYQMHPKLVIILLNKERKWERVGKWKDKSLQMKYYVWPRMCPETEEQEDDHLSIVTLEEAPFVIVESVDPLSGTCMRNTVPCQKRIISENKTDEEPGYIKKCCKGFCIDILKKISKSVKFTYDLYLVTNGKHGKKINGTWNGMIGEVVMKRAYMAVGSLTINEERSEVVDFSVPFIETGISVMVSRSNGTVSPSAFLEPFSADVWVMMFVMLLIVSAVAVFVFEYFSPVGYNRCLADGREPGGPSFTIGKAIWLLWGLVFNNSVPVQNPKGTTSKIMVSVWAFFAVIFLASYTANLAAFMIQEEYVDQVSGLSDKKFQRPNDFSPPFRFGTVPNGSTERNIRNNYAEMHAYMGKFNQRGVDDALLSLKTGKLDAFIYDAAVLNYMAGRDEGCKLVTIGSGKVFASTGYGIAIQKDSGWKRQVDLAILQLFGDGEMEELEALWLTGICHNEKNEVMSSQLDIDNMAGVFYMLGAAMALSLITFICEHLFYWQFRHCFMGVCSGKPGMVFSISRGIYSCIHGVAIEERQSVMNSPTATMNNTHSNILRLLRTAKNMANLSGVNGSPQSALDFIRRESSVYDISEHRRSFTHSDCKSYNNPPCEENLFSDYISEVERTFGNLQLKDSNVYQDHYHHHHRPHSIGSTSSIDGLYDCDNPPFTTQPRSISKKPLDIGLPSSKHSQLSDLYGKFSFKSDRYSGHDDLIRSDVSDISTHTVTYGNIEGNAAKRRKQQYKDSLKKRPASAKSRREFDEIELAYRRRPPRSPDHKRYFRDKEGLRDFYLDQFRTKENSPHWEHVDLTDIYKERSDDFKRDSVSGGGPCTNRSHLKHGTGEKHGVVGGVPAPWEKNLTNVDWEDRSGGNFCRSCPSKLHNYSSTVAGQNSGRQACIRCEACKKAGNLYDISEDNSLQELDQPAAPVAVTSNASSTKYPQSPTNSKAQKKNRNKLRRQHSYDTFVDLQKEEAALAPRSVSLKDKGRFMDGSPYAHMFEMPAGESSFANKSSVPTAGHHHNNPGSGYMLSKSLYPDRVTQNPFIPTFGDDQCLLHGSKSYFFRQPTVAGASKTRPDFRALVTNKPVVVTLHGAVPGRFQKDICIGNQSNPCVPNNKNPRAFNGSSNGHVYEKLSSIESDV", "format": "cell-based"}, "NMDA receptor": {"test_system": "NMDA receptor", "format": "cell-based, rat"}, "[2]": {"target": "NR1a/NR2A (GluN1-a/GluN2A) recombinant NMDA receptor (Rattus norvegicus, UniProt Q00959)", "sequence (Q00959 whole entry, looked up)": "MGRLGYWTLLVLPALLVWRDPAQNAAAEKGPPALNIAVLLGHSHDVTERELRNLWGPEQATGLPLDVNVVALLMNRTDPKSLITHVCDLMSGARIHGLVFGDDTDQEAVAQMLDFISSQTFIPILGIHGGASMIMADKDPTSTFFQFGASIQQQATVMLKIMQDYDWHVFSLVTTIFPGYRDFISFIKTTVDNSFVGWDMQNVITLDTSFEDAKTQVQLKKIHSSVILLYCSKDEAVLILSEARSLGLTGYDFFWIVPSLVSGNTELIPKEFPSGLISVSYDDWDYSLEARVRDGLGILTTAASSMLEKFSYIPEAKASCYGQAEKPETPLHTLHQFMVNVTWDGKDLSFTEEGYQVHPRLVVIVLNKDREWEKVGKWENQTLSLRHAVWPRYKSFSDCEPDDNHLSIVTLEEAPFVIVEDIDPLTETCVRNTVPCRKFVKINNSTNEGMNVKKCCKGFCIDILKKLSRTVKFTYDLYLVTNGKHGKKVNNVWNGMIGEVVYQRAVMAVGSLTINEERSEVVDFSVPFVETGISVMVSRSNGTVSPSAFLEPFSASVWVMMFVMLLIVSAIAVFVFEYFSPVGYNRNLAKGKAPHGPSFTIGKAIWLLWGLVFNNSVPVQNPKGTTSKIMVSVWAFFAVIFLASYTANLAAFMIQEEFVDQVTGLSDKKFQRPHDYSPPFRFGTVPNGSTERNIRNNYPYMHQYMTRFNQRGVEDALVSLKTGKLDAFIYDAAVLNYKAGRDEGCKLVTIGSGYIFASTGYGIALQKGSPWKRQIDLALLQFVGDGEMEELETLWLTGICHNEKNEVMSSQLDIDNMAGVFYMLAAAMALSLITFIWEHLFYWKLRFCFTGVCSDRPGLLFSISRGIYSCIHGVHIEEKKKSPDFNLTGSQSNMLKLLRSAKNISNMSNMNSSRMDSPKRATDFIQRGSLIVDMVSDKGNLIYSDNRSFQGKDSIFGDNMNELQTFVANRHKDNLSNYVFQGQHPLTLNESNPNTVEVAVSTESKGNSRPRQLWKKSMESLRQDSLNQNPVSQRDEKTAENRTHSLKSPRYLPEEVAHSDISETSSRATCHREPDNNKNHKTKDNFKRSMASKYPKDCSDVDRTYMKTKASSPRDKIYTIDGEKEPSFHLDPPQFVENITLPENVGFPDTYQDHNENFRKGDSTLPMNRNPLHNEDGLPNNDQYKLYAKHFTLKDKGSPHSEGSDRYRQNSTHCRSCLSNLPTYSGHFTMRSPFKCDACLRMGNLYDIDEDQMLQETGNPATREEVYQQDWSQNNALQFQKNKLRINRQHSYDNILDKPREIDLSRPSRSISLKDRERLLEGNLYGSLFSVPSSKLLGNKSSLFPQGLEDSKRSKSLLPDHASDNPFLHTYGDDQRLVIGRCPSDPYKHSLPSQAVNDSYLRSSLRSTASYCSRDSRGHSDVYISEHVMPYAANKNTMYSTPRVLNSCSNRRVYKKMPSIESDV", "format": "cell-based"}}, "note": "Ends that are not written are not given here.", "data": [{"sequence": "GEDDLQDNQDLIRDKSN [SEQ ID NO: 2]", "values": [{"measurement": "blocking of evoked current (in words)", "setting": "[1]", "value": "Almost total blocking of the current"}, {"measurement": "selectivity between GluN2B and GluN2A subunits (in words)", "setting": "[1]", "value": "selectivity for subunit GluN2B rather than GluN2A"}, {"measurement": "inhibition in some registers", "setting": "NMDA receptor", "value": "~40", "unit": "%"}, {"measurement": "IC50", "setting": "NMDA receptor; read-out: IC50 for inhibition of NMDA receptor-evoked current (dose-response curve)", "value": 202, "unit": "µM"}, {"measurement": "reduction of evoked current (in words)", "setting": "[2]", "value": "slight reduction in current"}]}]}
